Assay results taken from ChEMBL document CHEMBL5214976, “Design, synthesis and anti-tumor activity studies of novel pyrido[3, 4-d]pyrimidine derivatives” (Bioorg Med Chem Lett, 2022).
Activity calls are given as the source filed them. The rule behind the calls is not given here.

What was measured:
PC-3 = test: Antitumor activity against human PC-3 cells assessed as inhibition of cell proliferation incubated for 72 hrs by MTT assay; format: functional, cell-based; details: PC-3, 72 h
HepG2 [1] = test: Antitumor activity human HepG2 cells assessed as inhibition of cell proliferation incubated for 72 hrs by MTT assay; format: functional, cell-based; details: HepG2, 72 h
MGC-803 [2] = test: Antitumor activity human MGC-803 cells assessed as inhibition of cell proliferation incubated for 72 hrs by MTT assay; format: functional, cell-based; details: MGC-803, 72 h
MGC-803 [3] = test: Induction of apoptosis in human MGC-803 cells assessed as total apoptotic cells at 0.5 uM by Annexin V-FITC/PI staining based flow cytometric analysis (reference value: 4.6%); format: functional
MGC-803 [4] = test: Induction of cell cycle arrest in human MGC-803 cells assessed as accumulation of cells at G1/S phase by measuring decrease in CycD1 protein expression at 0.25 to 0.75 uM by Western blot analysis; format: functional, cell-based; details: dose 0.25-0.75 µM
MGC-803 [5] = test: Induction of apoptosis in human MGC-803 cells assessed as increase in PARP protein expression by Western blot analysis; format: functional, cell-based; details: dose 0.25-0.75 µM, DDE = dose-dependent effect
MGC-803 [6] = test: Induction of apoptosis in human MGC-803 cells assessed as necrotic cells at 0.75 uM by Annexin V-FITC/PI staining based flow cytometric analysis (reference value: 0.4 %); format: functional
MGC-803 [7] = test: Induction of apoptosis in human MGC-803 cells assessed as early apoptotic cells at 0.75 uM by Annexin V-FITC/PI staining based flow cytometric analysis (reference value: 1.8 %); format: functional
MGC-803 [8] = test: Induction of apoptosis in human MGC-803 cells assessed as total apoptotic cells at 0.75 uM by Annexin V-FITC/PI staining based flow cytometric analysis (reference value: 4.6%); format: functional
MGC-803 [9] = test: Induction of apoptosis in human MGC-803 cells assessed as total apoptotic cells at 0.25 uM by Annexin V-FITC/PI staining based flow cytometric analysis (reference value: 4.6%); format: functional
MGC-803 [10] = test: Induction of apoptosis in human MGC-803 cells assessed as late apoptotic cells at 0.75 uM by Annexin V-FITC/PI staining based flow cytometric analysis (reference value: 2.8 %); format: functional
MGC-803 [11] = test: Induction of apoptosis in human MGC-803 cells assessed as necrotic cells at 0.25 uM by Annexin V-FITC/PI staining based flow cytometric analysis (reference value: 0.4 %); format: functional
MGC-803 [12] = test: Induction of apoptosis in human MGC-803 cells assessed as late apoptotic cells at 0.25 uM by Annexin V-FITC/PI staining based flow cytometric analysis (reference value: 2.8 %); format: functional
MGC-803 [13] = test: Induction of apoptosis in human MGC-803 cells assessed as necrotic cells at 0.5 uM by Annexin V-FITC/PI staining based flow cytometric analysis (reference value: 0.4 %); format: functional
MGC-803 [14] = test: Induction of apoptosis in human MGC-803 cells assessed as increase in Bid protein expression by Western blot analysis; format: functional, cell-based; details: dose 0.25-0.75 µM, DDE = dose-dependent effect
MGC-803 [15] = test: Induction of apoptosis in human MGC-803 cells assessed as viable cells at 0.5 uM by Annexin V-FITC/PI staining based flow cytometric analysis (reference value: 95.0 %); format: functional; details: read-out: Activity
MGC-803 [16] = test: Induction of apoptosis in human MGC-803 cells assessed as late apoptotic cells at 0.5 uM by Annexin V-FITC/PI staining based flow cytometric analysis (reference value: 2.8 %); format: functional
MGC-803 [17] = test: Induction of apoptosis in human MGC-803 cells assessed as early apoptotic cells at 0.5 uM by Annexin V-FITC/PI staining based flow cytometric analysis (reference value: 1.8 %); format: functional
MGC-803 [18] = test: Induction of apoptosis in human MGC-803 cells assessed as viable cells at 0.25 uM by Annexin V-FITC/PI staining based flow cytometric analysis (reference value: 95.0 %); format: functional; details: read-out: Activity
MGC-803 [19] = test: Induction of apoptosis in human MGC-803 cells assessed as viable cells at 0.75 uM by Annexin V-FITC/PI staining based flow cytometric analysis (reference value: 95.0 %); format: functional; details: read-out: Activity
MGC-803 [20] = test: Induction of apoptosis in human MGC-803 cells assessed as early apoptotic cells at 0.25 uM by Annexin V-FITC/PI staining based flow cytometric analysis (reference value: 1.8 %); format: functional
MGC-803 [21] = test: Antiproliferative activity against human MGC-803 cells assessed as inhibition of cell proliferation incubated for 48 hrs by MTT assay; format: functional, cell-based; details: MGC-803, 48 h
MGC-803 [22] = test: Potency index, ratio of 5-fluorouracil IC50 to test compound IC50 for antiproliferative activity against human MGC-803 cells assessed as inhibition of cell proliferation incubated for 72 hrs by MTT assay; format: functional
HepG2 [23] = test: Potency index, ratio of 5-fluorouracil IC50 to test compound IC50 for antiproliferative activity against human HepG2 cells assessed as inhibition of cell proliferation incubated for 72 hrs by MTT assay; format: functional

SMILES	IC50 (PC-3) [µM]	IC50 (HepG2 [1]) [µM]	IC50 (MGC-803 [2]) [µM]	other results
C#CCSc1nc(N2CCN(CC)CC2)c2ccncc2n1	> 80	> 80	70.6	–
C#CCSc1nc(NCCC(C)C)c2ccncc2n1	> 80	> 80	> 80	–
C#CCSc1nc(Nc2cccc(Cl)c2)c2ccncc2n1	56.5	1.09	2.19	–
C#CCSc1nc(Nc2ccccc2Cl)c2ccncc2n1	> 80	17.2	27.6	–
C/C=C/Sc1nc(Nc2cccc(OC)c2)c2ccncc2n1	6.79	18.1	1.03	–
C#CCSc1nc(Nc2ccc(C)cc2)c2ccncc2n1	15.7	6.17	8.09	–
C#CCSc1nc(Nc2ccc(F)cc2)c2ccncc2n1	17.3	10.8	15.8	–
C#CCSc1nc(N2CCN(C(=O)OC(C)(C)C)CC2)c2ccncc2n1	47.5	55.9	> 80	–
C#CCSc1nc(Nc2ccccc2)c2ccncc2n1	> 80	29.4	16.2	–
COc1cccc(Nc2nc(SCC3CC3)nc3cnccc23)c1	14.8	24.9	1.34	–
C#CCSc1nc(N2CCSCC2)c2ccncc2n1	> 80	> 80	> 80	–
C#CCSc1nc(Nc2ccc(Cl)cc2Cl)c2ccncc2n1	30.4	11	25.5	–
C#CCSc1nc(Nc2cccc(O)c2)c2ccncc2n1	> 80	29.5	15.7	–
C#CCSc1nc(N2CCN(C)CC2)c2ccncc2n1	> 80	> 80	> 80	–
C#CCSc1nc(NCCC#N)c2ccncc2n1	> 80	> 80	> 80	–
COc1cccc(Nc2nc(SCC3CCCCC3)nc3cnccc23)c1	27.5	32.8	23.7	–

SMILES	IC50 (PC-3) [µM]	IC50 (HepG2 [1]) [µM]	IC50 (MGC-803 [2]) [µM]	other results
CCSc1nc(Nc2cccc(OC)c2)c2ccncc2n1	7.15	10.7	0.59	Activity (MGC-803 [3]): 27.6%; Activity (MGC-803 [4]): Active; Activity (MGC-803 [5]): Dde; Activity (MGC-803 [6]): 0.2%; Activity (MGC-803 [7]): 38.9%; Activity (MGC-803 [8]): 75.7%; Activity (MGC-803 [9]): 9.8%; Activity (MGC-803 [10]): 36.8%; Activity (MGC-803 [11]): 0.2%; Activity (MGC-803 [12]): 3%; Activity (MGC-803 [13]): 0.5%; Activity (MGC-803 [14]): Dde; viability at 0.5 µM (MGC-803 [15]): 71.9%; Activity (MGC-803 [16]): 11.6%; Activity (MGC-803 [17]): 16%; viability at 0.25 µM (MGC-803 [18]): 90%; viability at 0.75 µM (MGC-803 [19]): 24.1%; Activity (MGC-803 [20]): 6.8%
C#CCSc1nc(Nc2cc(OC)c(OC)c(OC)c2)c2ccncc2n1	30.7	14.2	5.68	–
C#CCSc1nc(Nc2ccc(O)cc2)c2ccncc2n1	> 80	> 80	> 80	–
CCCSc1nc(Nc2cccc(OC)c2)c2ccncc2n1	15.3	17.3	1.95	–
C#CCSc1nc(Nc2ccccc2OC)c2ccncc2n1	> 80	4.53	3.44	–
C#CCSc1nc(N2CCOCC2)c2ccncc2n1	> 80	> 80	> 80	–
O=c1[nH]cc(F)c(=O)[nH]1 [FLUOROURACIL]	15.1	29.8	7.21	–
C#CCSc1nc(Nc2ccccc2O)c2ccncc2n1	18.7	> 80	21	–
Cc1cc(Cc2nc(C)c3ccccc3n2)n2ncnc2n1	–	–	–	IC50 (MGC-803 [21]): 8.28 µM
C#CCSc1nc(Nc2ccc([N+](=O)[O-])cc2)c2ccncc2n1	> 80	> 80	> 80	–
C#CCSc1nc(Nc2ccc(Cl)cc2)c2ccncc2n1	19	36.7	16.4	–
C#CCSc1nc(Nc2cccc(OC)c2)c2ccncc2n1	17.1	0.92	2.07	Ratio IC50 (MGC-803 [22]): 3; Ratio IC50 (HepG2 [23]): 30
C#CCSc1nc(Nc2ccc(OC)cc2)c2ccncc2n1	15.1	> 80	> 80	–
C#CCSc1nc(Nc2ccc(Br)cc2)c2ccncc2n1	26	56.2	26	–
C#CCSc1nc(N2CCN(Cc3ccccc3)CC2)c2ccncc2n1	> 80	> 80	> 80	–
